Experimental data published in US20080227688A1, “Inhibition of viral replication” (priority 2007, published 2008).
“Also recorded” adds a separate entry of the source. *1 amine or outer side, *2 acyl side, *3 side chain or, on linkers, in order; H or OH if unused. Where a SMILES comes first, the peptide text is derived from it. [ ]: non-standard residue; d: D form. The star is where a group is joined. hPhe = N[CH](CCc1ccccc1)C(=O)O; Morpholide = C1CN(*)CCO1; CO = O=C([*:1])[*:2]; CH2F = FC*

How the values were obtained:
[1] = test system: reovirus; conditions: pharmacological inhibition of cellular cathepsin B; cited from earlier work
[2] = test system: reovirus; format: cell-based, Dearing strain of reovirus serotype 3
[3] = test system: HIV type 1 virus; format: cell-based, HIV type 1 strain (NL4-3)
[4] = test system: myxoma virus; format: cell-based, myxoma virus (strain Lausanne)
[5] = test system: influenza A virus; experiment: Influenza A infection of Mv1Lu cells, FACS; format: cell-based, Flu type A (A/New Cale/H1N1); conditions: 20 μM, 4 days
[6] = test system: reovirus; experiment: Electron microscopy of reovirus-infected HT1080 cells; format: cell-based, Dearing strain of reovirus serotype 3; conditions: HT1080, MOI of 40, 20 μM, 48 hr post-infection
Method: FIGS. 2A-2B: Electron microscopic analysis of reovirus infected HT1080 cells in the presence or absence of Z-FA-FMK treatment. HT1080 cells grown to 50-70% confluency were infected with reovirus at MOI of 40, then either Z-FA-FMK (20 μM) or control medium was added in the culture medium. After 48 hr culture, cells were prepared for electron microscopic examination as described in the Examples. (FIG. 2A) HT1080 infected with reovirus in the absence of Z-FA-FMK showing scattered virions and viral inclusions (factory) (arrows) in the perinuclear region. Scale represents 500 nm×10,000 (above). […] Scale represents 100 nm×80,000 (FIG. 2B) HT1080 infected with reovirus in the presence of Z-FA-FMK showing scattered reovirus virion particles (arrows) but no reoviral inclusions in the perinuclear region. Scale represents 500 nm×10,000 (above). Scattered virions with empty shell (arrows) are present in perinuclear region (bottom). Scale represents 200 nm×40,000.
EM preparation was performed by the University of Calgary Microscopy & Imaging Facility. Cells grown on glass slides were rinsed briefly with PBS (phosphate buffered saline) and fixed with 4% EM grade glutaraldehyde in 0.1 M cacodylate buffer (pH 7.4) for 1 hr at room temperature (RT). After washing three times with the same buffer, cells were post-fixed in 1% osmium tetroxide buffered with 0.1 M cacodylate for 1 hr at RT. […]

[7] = target: cellular cathepsin B (Homo sapiens, UniProt P07858); conditions: cited from earlier work
[8] = test system: reovirus; experiment: HT1080 tumor xenograft in SCID mice with intratumoral reovirus, immunohistochemistry of tumor and heart; format: in vivo; conditions: 0.02 mg intratumorally, 16 days post-viral injection
Method: FIGS. 4A-4B: Z-FA-FMK blocks reovirus infection in vivo. (FIG. 4A) HT1080 cells were injected subcutaneously into hind flanks of SCID mice. After palpable tumors were established (11 days after implantation), tumors were injected with Live reovirus (L Reo; n=5 tumors), UV-inactivated reovirus (D Reo; n=5 tumors), Z-FA-FMK (FA; n=5 tumors) and Live reovius suspended in Z-FA-FMK solution (Reo+FA; n=5 tumors). Tumor growth was measured externally using calipers. Z-FA-FMK was dissolved in DMSO and administered as 0.02 mg suspended in PBS intratumorally per mouse everyday up to 7 days post viral injection, and every 2 days until completion of the experiment. […] Paraffin sections of tumors and heart tissues were analyzed by indirect immunohistochemical staining using reovirus antiserum as described in the Examples. […]
SCID mice (6-8 weeks, Charles River, Wilmington, Mass.) received a single subcutaneous implantation of 5×10^6 cells of HT1080 cells suspended in PBS. […] Tumor growth was measured externally using calipers and the volume was determined by the equation V=(L×W^2)×0.5, where L is the largest dimension and W is the largest dimension perpendicular to L. Z-FA-FMK was dissolved in DMSO and administered as 0.02 mg suspended in PBS intratumorally per mouse every day up to 7 days post viral injection, and every 2 days until completion of the experiment. […]

CCCNC(=O)[C@H]1O[C@@H]1C(=O)N[C@H](C(=O)N1CCC[C@H]1C(=O)OC)[C@@H](C)CC [CA-074Me]
reovirus viral yield [1]: decreased viral yields yet not a complete blockage of viral yield

O=C(CF)C(CCc1ccccc1)NC(=O)C(Cc1ccccc1)NC(=O)N1CCOCC1 (stereo not drawn) [Mu-FhF-FMK, N-Morpholineurea-phenylalanyl-homophenylalanyl-fluoromethylketone] ({Morpholide-CO}-Phe-[hPhe]-CH2F; configuration not given here)
reovirus-mediated cytopathogenicity [2]: effectively inhibited reovirus-mediated cytopathogenicity

C[C@H](NC(=O)[C@H](Cc1ccccc1)NC(=O)OCc1ccccc1)C(=O)CF [Z-FA-FMK, N-benzyloxycarbonyl-Phe-Ala-fluoromethylketone]
viral replication activity of HIV-1 [3]: did not affect viral replication activity | GFP expression level of BGMK monolayers [4]: significantly suppressed | myxoma infectivity (GFP expressing cells) [4]: inhibitory effects were not detectable | myxoma virus foci development [4]: significantly suppressed as Z-FA-FMK dosages were increased; also recorded: the inhibition of foci development is more readily detectable | viral replication activity of influenza A [5]: did not affect viral replication activity | viral factory formation (EM) [6]: did not form these viral factories | virion morphology (EM) [6]: all of the scattered viral particles contained empty capsids | inactivation of cathepsin B [7]: potent inactivator of cellular cathepsin B | reovirus replication activity in heart tissue (immunohistochemistry) [8]: effectively blocked | reovirus replication activity in tumor tissue (immunohistochemistry) [8]: effectively blocked | reoviral replication potential by FACS (reoviral antigen) [2]: effectively suppressed reoviral replication potential in a dose-dependent manner | reovirus replication (cytopathic morphology, viral antigens by western blotting and FACS) [2]: completely blocked reovirus replication

Z-Val-Ala-Asp-fluoromethylketone [Z-VAD-FMK]
reovirus-mediated cytopathogenicity [2]: effectively inhibited reovirus-mediated cytopathogenicity
